From paper PMC6017738, “A Comparative Pharmacokinetic Study by UHPLC-MS/MS of Main Active Compounds after Oral Administration of Zushima-Gancao Extract in Normal and Adjuvant-Induced Arthritis Rats” (Molecules : A Journal of Synthetic Chemistry and Natural …, 2018) come the findings set out here.

The nature of data set [1]: Pharmacokinetics in adjuvant-induced arthritis (AA) rats after oral administration of Zushima-Gancao extract (UHPLC-MS/MS of plasma). Conditions: for decrease of AUC (0–∞) compared with the normal group: AA rats versus normal rats, oral Zushima-Gancao extract; for change of Cmax in AA rats versus normal rats: p < 0.05.
Experimental: (§1) The plasma concentration–time curves (C-T curves) of nine analytes are presented in Figure 2, and the corresponding pharmacokinetic parameters, including Cmax, Tmax, AUC (0–t), AUC (0–∞) (AUC: area under concentration-time curve), and t1/2, were obtained using DAS 3.0 pharmacokinetic software (Chinese Pharmacological Association, China). Statistical differences between groups were analyzed using Student’s t-tests, and p-values less than 0.05 were considered statistically significant.
(§2) The chromatography experiment was carried out using a UHPLC system (Thermo Fisher, San Jose, CA, USA), equipped with a Hypersil GOLD C18 column (100 mm × 2.1 mm, 3 μm, Thermo Fisher, San Jose, CA, USA) maintained at 35 °C. The mobile phase consisted of 0.05% formic acid in water (Solvent A) and acetonitrile (Solvent B), and the flow rate was 0.3 mL/min. In order to completely separate all the analytes, the 10 min gradient elution program was used as follows: 0–1 min, 10% B; 1–5 min, 10–90% B; 5–6 min, 90–100% B; 6–8 min, 100% B; 8–9 min, 100–10% B; 9–10 min, 10% B, and the sample injection volume was 3 μL.
(§3) Mass spectrometry detection was operated on TSQ Vantage triple-stage quadrupole mass spectrometer (Thermo Fisher, San Jose, CA, USA) equipped with an electrospray ionization (ESI) source. Quantification of the analytes was performed using selective reaction monitor (SRM) in the negative ionization mode. Spray voltage, sheath gas pressure, auxiliary gas pressure, vaporizer temperature, and capillary temperature were set as 3.0 kV, 45 arb, 25 arb, 450 °C, and 350 °C, respectively.
(§4) Male Sprague–Dawley (SD) rats weighing 180–220 g (SCXK-2012-0002) were supplied by Silaike Lab Animals Ltd. (Shanghai, China). They were all kept in a stable condition (temperature, 22 ± 2 °C; relative humidity, 45–60%) with 12 h light/dark cycles for five days before animal experiments.
(§5) Rats were randomly divided into normal and AA groups with six rats in each group. The arthritic model rats were prepared as our previous research [19]. AA rats were intracutaneously injected with 0.1 mL of FAC in the left hind footpad and normal rats were injected with sterile saline. The FAC solution was prepared as follows: bacillus calmette-guerin (BCG) was bathed in water at 80 °C for 30 min, and then dissolved in a liquid paraffin–lanolin mixture (3:2, v/v). Immediately prior to use, the FAC solution were sterilized for 30 min at 120 °C.
(§6) After model construction, the rats were fed for 20 days. All rats were fasted for 12 h before drug administration, with free access to water. Each rat was administered with Zushima-Gancao extract at a single dose of 10 mL/kg. Blood samples (approximately 0.3 mL) were collected into heparinized micro-centrifuge tubes from the postorbital venous plexus veins of rats at specific time points of 0, 0.08, 0.17, 0.33, 0.5, 1, 2, 3, 5, 8, 12, 24, and 36 h. All blood samples were centrifuged immediately at 5000 rpm for 6 min, and the plasma were obtained and stored at −80 °C until analysis.
(§7) A liquid–liquid extraction (LLE) method was applied to extract the compounds from thawed rat plasma samples, aliquots of 100 μL plasma sample were transferred into a 1.5 mL Eppendorf tube, and 10 μL of methanol, 10 μL of hydrochloric acid (2 mol/L), and 10 μL of IS (130 ng/mL) were added separately. The mixture was vortexed for 30 s, and 500 μL of ethyl acetate was added and mixed by vortexing for 10 min. The supernatant (about 450 μL) was transferred into another tube after centrifugation at 16,000 rpm for 10 min and then evaporated to dryness at 45 °C, 15 kPa in a Thermo SPD1010-230 SpeedVac Concentrator (Thermo Fisher, San Jose, CA, USA). The residue was dissolved in 100 μL of initial mobile phase by vortexing for 5 min, and a further centrifugation at 17,000 rpm for 10 min was applied after the residue was re-dissolved. The supernatant was injected into the UHPLC-MS/MS system for analysis.
The nature of data set [2]: Stability test of analytes in rat plasma (QC samples). Conditions: for 24 h Stability RE: autosampler at 4 °C for 24 h; for Short-Term Stability RE: room temperature for 4 h; for Freeze-Thaw Stability RE: three freeze-thaw cycles; for Long-Term Stability RE: −80 °C for a week. Format: physicochemical. The procedure: Stability. To evaluate the stability of each component during analysis, QC samples at low, middle, and high concentrations (three samples for each concentration) were tested under different conditions, including placing QC samples in the autosampler at 4 °C for 24 h, at room temperature for 4 h, at −80 °C for a week, and three freeze-thaw cycles.

The nature of data set [3]: Pharmacokinetics in normal rats after oral administration of Zushima-Gancao extract (UHPLC-MS/MS of plasma). Conditions: male, Sprague-Dawley, rat, oral Zushima-Gancao extract 10 mL/kg single dose, n = 6, mean ± SD. It is filed as in vivo.
Experimental: as §1, §2, §3, §4, §5, §6, §7
The mark [4] stands for this setting: male, Sprague-Dawley, rat, plasma, po, 10 mL/kg.
The mark [5] stands for this setting: male, Sprague-Dawley, rat, in vivo, po, 10 mL/kg.

The structures appear in SMILES notation.

On to `CC1(C)[C@@H](O[C@H]2O[C@H](C(=O)O)[C@@H](O)[C@H](O)[C@H]2O[C@@H]2O[C@H](C(=O)O)[C@@H](O)[C@H](O)[C@H]2O)CC[C@]2(C)[C@H]3C(=O)C=C4[C@@H]5C[C@@](C)(C(=O)O)CC[C@]5(C)CC[C@@]4(C)[C@]3(C)CC[C@@H]12` [GL, glycyrrhizin], for which, in data set [1], the “decrease of AUC (0–∞) compared with the normal group” value (“decrease of AUC (0–∞)” for short) is on record as 29.89% and the “change of Tmax in AA rats versus normal rats” value (“change of Tmax” below) is given as “obvious increase”. Moreover, in data set [1] (setting [4]), the AUC(0-inf) was 187 ± 64.6 ng·h/mL, the area under the curve AUC(0-t) is 184 ± 61.7 ng·h/mL, the Cmax turned out to be 24.9 ± 7.81 ng/mL and the time to peak (Tmax) came out at 4.83 ± 2.64 h. The half-life in data set [1] (setting [4]) was 4.88 ± 3.04 h. Besides, in data set [2] (high concentration), the “24 h Stability RE” value was 13.22%, the “Short-Term Stability RE” value is 13.85%, the “Freeze-Thaw Stability RE” value stood at 14.36% and the “Long-Term Stability RE” value was 9.2%. In data set [2] (low concentration), the “24 h Stability RE” value was 11.79%, the “Short-Term Stability RE” value worked out at 10.26%, the “Freeze-Thaw Stability RE” value came to 10.89% and the “Long-Term Stability RE” value is reported as 11.48%. Moreover, in data set [2] (middle concentration), the “24 h Stability RE” value is listed as 11.8%, the “Short-Term Stability RE” value turned out to be 10.68%, the “Freeze-Thaw Stability RE” value is reported as 14.3% and the “Long-Term Stability RE” value is recorded as 9.96%. For the same compound, in data set [3], the area under the curve AUC(0-inf) was 267 ± 49.7 ng·h/mL, the area under the curve AUC(0-t) amounted to 248 ± 47.8 ng·h/mL, the concentration peaked (Cmax) at 29 ± 10.5 ng/mL and the time of peak concentration (Tmax) turned out to be 0.58 ± 0.35 h. In addition, in data set [3], the half-life is 8.72 ± 4.81 h.
Consider `O=C1C[C@@H](c2ccc(O)cc2)Oc2cc(O)ccc21` [LG, liquiritigenin], for which, in data set [1] (setting [4]), the AUC(0-inf) was 194 ± 84.4 ng·h/mL, the AUC(0-t) stood at 193 ± 83.2 ng·h/mL, the Cmax turned out to be 29.7 ± 10.7 ng/mL and the time of peak concentration (Tmax) was 4.7 ± 2.52 h. For the same compound, the half-life in data set [1] (setting [4]) is 2.3 ± 0.95 h. Moreover, in data set [2] (high concentration), the “24 h Stability RE” value was determined as 8.56%, the “Short-Term Stability RE” value is listed as 1.5%, the “Freeze-Thaw Stability RE” value was 6.75% and the “Long-Term Stability RE” value is on record as 3.89%. Further, in data set [2] (low concentration), the “24 h Stability RE” value is on record as 6.72%, the “Short-Term Stability RE” value is given as 9.76%, the “Freeze-Thaw Stability RE” value turned out to be 7.22% and the “Long-Term Stability RE” value is recorded as 2.87%. Moreover, in data set [2] (middle concentration), the “24 h Stability RE” value is on record as 8.15%, the “Short-Term Stability RE” value stood at 11.16%, the “Freeze-Thaw Stability RE” value is 7.96% and the “Long-Term Stability RE” value is recorded as 0.58%. In data set [3], the total exposure AUC(0-inf) is 170 ± 62.5 ng·h/mL, the AUC(0-t) was 169 ± 62.4 ng·h/mL, the Cmax is 23.9 ± 3.72 ng/mL and the time of peak concentration (Tmax) is 3.86 ± 1.98 h. Further, the half-life in data set [3] was 1.66 ± 0.44 h.
As for `COc1cc2cc(Oc3ccc4ccc(=O)oc4c3)c(=O)oc2cc1O` [DR, daphnoretin], the “change of Cmax in AA rats versus normal rats” value (from here on “change of Cmax”) in data set [1] is “decreased remarkably”. Also, in data set [1] (setting [4]), the total exposure AUC(0-inf) is 154 ± 79.8 ng·h/mL, the exposure AUC(0-t) amounted to 86.2 ± 33.8 ng·h/mL, the peak concentration (Cmax) is 7.06 ± 3.82 ng/mL and the Tmax came out at 0.42 ± 0.31 h. Further, the half-life in data set [1] (setting [4]) was 28.3 ± 9.39 h. Moreover, in data set [2] (high concentration), the “24 h Stability RE” value is reported as −6.11%, the “Short-Term Stability RE” value is given as −5.38%, the “Freeze-Thaw Stability RE” value is −9.71% and the “Long-Term Stability RE” value is −13.85%. In data set [2] (low concentration), the “24 h Stability RE” value is listed as −11.79%, the “Short-Term Stability RE” value was −13.63%, the “Freeze-Thaw Stability RE” value turned out to be 0.05% and the “Long-Term Stability RE” value is given as −12.79%. In addition, in data set [2] (middle concentration), the “24 h Stability RE” value is −11.33%, the “Short-Term Stability RE” value is −13.99%, the “Freeze-Thaw Stability RE” value is reported as −14.22% and the “Long-Term Stability RE” value is given as −14.41%. In data set [3], the total exposure AUC(0-inf) amounted to 163 ± 78.7 ng·h/mL, the AUC(0-t) was determined as 131 ± 58.1 ng·h/mL, the Cmax was determined as 14.4 ± 3.31 ng/mL and the Tmax was 0.39 ± 0.31 h. In data set [3], this compound showed a half-life of 14.5 ± 2.91 h.
For the compound `O=C(/C=C/c1ccc(O)cc1)c1ccc(O)cc1O` [ILG, isoliquiritigenin], the “change of Tmax” value in data set [1] is “obvious increase”. In data set [1] (setting [4]), the total exposure AUC(0-inf) is 8.48 ± 3.04 ng·h/mL, the AUC(0-t) stood at 8.25 ± 2.9 ng·h/mL, the peak concentration (Cmax) is 1.92 ± 0.55 ng/mL and the Tmax came out at 3.7 ± 2.1 h. Besides, the half-life in data set [1] (setting [4]) is 1.39 ± 0.65 h. In addition, in data set [2] (high concentration), the “24 h Stability RE” value was determined as 10.13%, the “Short-Term Stability RE” value was determined as 12.09%, the “Freeze-Thaw Stability RE” value is given as 7.59% and the “Long-Term Stability RE” value is 13.23%. Further, in data set [2] (low concentration), the “24 h Stability RE” value was 8.75%, the “Short-Term Stability RE” value is −3.23%, the “Freeze-Thaw Stability RE” value is listed as 2.53% and the “Long-Term Stability RE” value is recorded as −11.29%. Further, in data set [2] (middle concentration), the “24 h Stability RE” value was 10.08%, the “Short-Term Stability RE” value turned out to be 11.76%, the “Freeze-Thaw Stability RE” value was found to be 12.3% and the “Long-Term Stability RE” value was 12.68%. Moreover, in data set [3], the total exposure AUC(0-inf) stood at 12.4 ± 6.97 ng·h/mL, the AUC(0-t) amounted to 8.89 ± 3.12 ng·h/mL, the concentration peaked (Cmax) at 2.77 ± 0.83 ng/mL and the time of peak concentration (Tmax) is 0.14 ± 0.05 h. Moreover, in data set [3], the half-life is 1.08 ± 0.67 h.
As to `O=c1ccc2ccc(O)cc2o1` [HDC, 7-hydroxycoumarin], in data set [1] (setting [4]), the AUC(0-inf) stood at 131 ± 29.1 ng·h/mL, the exposure AUC(0-t) was 127 ± 26.8 ng·h/mL, the highest concentration (Cmax) was 179 ± 98 ng/mL and the Tmax is 0.22 ± 0.08 h. In addition, the half-life in data set [1] (setting [4]) was 2.52 ± 1.82 h. In addition, in data set [2] (high concentration), the “24 h Stability RE” value was determined as 1.39%, the “Short-Term Stability RE” value was found to be 3.09%, the “Freeze-Thaw Stability RE” value was determined as 2.64% and the “Long-Term Stability RE” value is given as −0.05%. In data set [2] (low concentration), the “24 h Stability RE” value is recorded as −1.43%, the “Short-Term Stability RE” value is −13.86%, the “Freeze-Thaw Stability RE” value is reported as −13.48% and the “Long-Term Stability RE” value is −10.07%. For the same compound, in data set [2] (middle concentration), the “24 h Stability RE” value was −0.85%, the “Short-Term Stability RE” value is recorded as −5.72%, the “Freeze-Thaw Stability RE” value is on record as −1.27% and the “Long-Term Stability RE” value is given as −1.8%. In data set [3], the total exposure AUC(0-inf) came to 148 ± 24.9 ng·h/mL, the area under the curve AUC(0-t) stood at 142 ± 24.4 ng·h/mL, the Cmax amounted to 193 ± 29.3 ng/mL and the Tmax turned out to be 0.22 ± 0.08 h. The compound further had a half-life in data set [3] of 2.86 ± 1.94 h.
For `O=C(/C=C/c1ccc(O[C@@H]2O[C@H](CO)[C@@H](O)[C@H](O)[C@H]2O)cc1)c1ccc(O)cc1O` [ILQ, isoliquiritin], in data set [1], the “decrease of AUC (0–∞)” value was found to be 39.02%, the “change of Tmax” value is recorded as “obvious increase” and the “change of Cmax” value is given as “decreased remarkably”. Also, in data set [1] (AA rats, oral Zushima-Gancao extract 10 mL/kg single dose, plasma, n = 6, mean ± SD), the time to peak (Tmax) was found to be 0.36 ± 0.13 h. For the same compound, in data set [1] (setting [5]), the AUC(0-inf) was found to be 4.11 ± 1.12 ng·h/mL, the AUC(0-t) was 4.04 ± 1.2 ng·h/mL, the maximum concentration (Cmax) came to 4.63 ± 3.64 ng/mL and the half-life is 0.94 ± 0.83 h. Further, in data set [2] (high concentration), the “24 h Stability RE” value was determined as 6.64%, the “Short-Term Stability RE” value is 3.29%, the “Freeze-Thaw Stability RE” value was 4.51% and the “Long-Term Stability RE” value came out at 2.66%. In addition, in data set [2] (low concentration), the “24 h Stability RE” value was 4.99%, the “Short-Term Stability RE” value was determined as 9.08%, the “Freeze-Thaw Stability RE” value was −2.51% and the “Long-Term Stability RE” value was 7.49%. Further, in data set [2] (middle concentration), the “24 h Stability RE” value is given as 5.33%, the “Short-Term Stability RE” value stood at 12.35%, the “Freeze-Thaw Stability RE” value was −6.3% and the “Long-Term Stability RE” value turned out to be 5.37%. For the same compound, in data set [3], the AUC(0-inf) came out at 6.74 ± 0.6 ng·h/mL, the AUC(0-t) worked out at 6.72 ± 0.6 ng·h/mL, the Cmax stood at 8.92 ± 1.68 ng/mL and the time to peak (Tmax) is 0.17 ± 0.09 h. Further, the half-life in data set [3] is 0.52 ± 0.2 h.
`O=C1C[C@@H](c2ccc(O[C@@H]3O[C@H](CO)[C@@H](O)[C@H](O)[C@H]3O)cc2)Oc2cc(O)ccc21` [LQ, liquiritin]: in data set [1], the “decrease of AUC (0–∞)” value is given as 24.57% and the “change of Cmax” value is “decreased remarkably”. In addition, in data set [1] (setting [4]), the AUC(0-inf) is 34.4 ± 8.89 ng·h/mL, the AUC(0-t) turned out to be 33.1 ± 6.8 ng·h/mL, the Cmax is 30.1 ± 13.8 ng/mL and the time of peak concentration (Tmax) stood at 0.21 ± 0.1 h. Further, the half-life in data set [1] (setting [4]) is 0.75 ± 0.65 h. Further, in data set [2] (high concentration), the “24 h Stability RE” value is 4.89%, the “Short-Term Stability RE” value was found to be 5.23%, the “Freeze-Thaw Stability RE” value came out at 7.92% and the “Long-Term Stability RE” value is given as 7.57%. Also, in data set [2] (low concentration), the “24 h Stability RE” value worked out at 2.03%, the “Short-Term Stability RE” value was −9.95%, the “Freeze-Thaw Stability RE” value is listed as 13.76% and the “Long-Term Stability RE” value was determined as 8.14%. In data set [2] (middle concentration), the “24 h Stability RE” value came to 3.31%, the “Short-Term Stability RE” value is listed as 0.14%, the “Freeze-Thaw Stability RE” value is reported as −5.95% and the “Long-Term Stability RE” value is on record as −0.13%. In data set [3], the area under the curve AUC(0-inf) amounted to 45.5 ± 3.9 ng·h/mL, the AUC(0-t) was found to be 45.5 ± 3.89 ng·h/mL, the peak level (Cmax) was 58.8 ± 12.5 ng/mL and the half-life was 0.47 ± 0.15 h.
